Numbers after ± are expanded uncertainties.

This passage reports refractive index, mass density and Normal boiling temperature results from the NIST ThermoML archive (doi:10.1021/je500422t).

Data set [1] is described as follows: refractive index (Na D-line) (dimensionless). The note with it: 298.2 K; 101.33 kPa; Liquid; Standard Abbe refractometry.
The conditions of data set [2]: Liquid; for mass density: 298.2 K, 101.33 kPa, Vibrating tube method; for Normal boiling temperature: Distillation.

As to `COC(=O)OC` [dimethyl carbonate], the refractive index (as a rule, a measure of how strongly the sample bends light) in data set [1] came to 1.3685 ± 0.0004. Moreover, in data set [2], the mass density (as a rule, mass per unit of volume) came to 1061.9 ± 1 kg/m3 and the Normal boiling temperature stood at 90.08 ± 1.1 °C.

On to `O=CO` [formic acid], for which the refractive index in data set [1] is 1.37144 ± 0.00039. In data set [2], the mass density was found to be 1220.04 ± 1.1 kg/m3 and the Normal boiling temperature worked out at 101.2 ± 1.1 °C.
